Source: the Kinase Knowledgebase extract (Sharma et al. 2016)

The compounds below were run against MAPK14;MAPK11;MAPK12;MAPK13 (human) (UniProt Q16539) (assay: Assessment of Activity of MAPK11, MAPK12, MAPK13 and MAPK14 Kinases).

Row | SMILES | IC50 [µM]
1 | Cc1ccc(C(N)=O)cc1Nc1cc(=O)n(C)c2c1cnn2-c1cc(F)ccc1F | < 0.025
2 | Cc1ccc(C(=O)NC2CC2)cc1Nc1cc(=O)n(C)c2c1cnn2-c1cc(F)ccc1F | < 0.025
3 | Cc1ccc(C(=O)NC2CC2)cc1Oc1cc(=O)n(C)c2c1cnn2-c1cc(F)ccc1F | < 0.025
4 | Cc1ccc(C(=O)NC2CC2)cc1Oc1cc(=O)n(C)c2c1cnn2-c1cccc(F)c1 | < 0.025
5 | CONC(=O)c1ccc(C)c(Nc2cc(=O)n(C)c3c2cnn3-c2ccc(F)cc2F)c1 | 0.0016
6 | Cc1ccc(C(=O)NC2CC2)cc1Oc1cc(=O)n(C)c2c1cnn2-c1c(F)cccc1F | < 0.025
7 | Cc1ccc(C(=O)NC2CC2)cc1Nc1cc(=O)n(C)c2c1cnn2-c1c(F)cccc1F | < 0.025
8 | Cc1ccc(C(N)=O)cc1Nc1cc(=O)n(C)c2c1cnn2-c1ccc(F)cc1F | < 0.025
9 | Cn1c(=O)cc(Nc2cc(C(=O)NC3CC3)ccc2Cl)c2cnn(-c3cc(F)ccc3F)c21 | < 0.025
10 | Cn1c(=O)cc(Nc2cc(C(=O)NC3CC3)ccc2Cl)c2cnn(-c3c(F)cccc3F)c21 | < 0.025
11 | Cn1c(=O)cc(Nc2cc(C(=O)NC3CC3)ccc2F)c2cnn(-c3ccc(F)cc3F)c21 | < 0.025
12 | Cc1ccc(C(=O)NC2CC2)cc1Oc1cc(=O)n(C)c2c1cnn2-c1ccc(F)cc1F | < 0.025

Continued, values first:

Row | IC50 [µM] | SMILES
13 | < 0.025 | CCn1c(=O)cc(Nc2cc(C(=O)NC3CC3)ccc2C)c2cnn(-c3ccc(F)cc3)c21
14 | 0.0017 | CCn1c(=O)cc(Nc2cc(C(=O)NC3CC3)ccc2Cl)c2cnn(-c3ccc(F)cc3)c21
15 | < 0.025 | CCn1c(=O)cc(Oc2cc(C(=O)NC3CC3)ccc2C)c2cnn(-c3ccc(F)cc3)c21
16 | < 0.025 | Cc1ccc(C(=O)NC2CC2)cc1Nc1cc(=O)n(C)c2c1cnn2-c1cccc(F)c1
17 | 0.0012 | CCn1c(=O)cc(Nc2cc(C(=O)NC3CC3)ccc2Cl)c2cnn(-c3ccc(F)cc3F)c21
18 | 0.0021 | Cn1c(=O)cc(Nc2cc(C(=O)NC3CC3)ccc2Cl)c2cnn(-c3ccc(F)cc3)c21
